Assay results: patent US10154976B2, “System and method for delivering protease inhibitors” (Bordoloi Biotech, LLC, priority 2013, dated 2018)

Columns and labels:
[1] = target: T1, plasmin (Homo sapiens, UniProt P00747); test: Gravimetric fibrin clot degradation by plasmin, single 48 hour incubation; format: biochemical; design: TA delays the conversion of plasminogen to plasmin; purchased Sigma P1867
[2] = target: T1, plasmin; test: Gravimetric fibrin clot degradation in plasmin medium freshly exchanged every 24 hours;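 also: fibrin clots formed from bovine fibrinogen and thrombin in 96-well plates, weighed each day after plasmin exposure, percent degradation relative to original clot weight, with PBS-only no-plasmin controls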
Experimental: Also, a gravimetric in vitro method has been developed for a degradation study of a fibrin sealant in a plasmin medium at pH 7.4 and 37° C., where the medium has been freshly exchanged every twenty-four hours. Further investigation into the described degradation of fibrin sealant was undertaken for up to four consecutive days.
A preparation of fibrinogen solution was prepared as described herein: • 1. Prepared a 10 percent solution of fibrinogen by dissolving 1.4 gms of bovine fibrinogen (Sigma F8630) in 14 ml of PBS. The solution was incubated at 37° C. with occasional swirling for 1 hour or till fibrinogen is completely dissolved. • 2. Molecular weight of TA is 157 grams. Three and half millimolar (0.55 mg TA/ml) suspension of 5 percent and 30 percent TA/PLGA were prepared by dispersing 50 mg of 5 percent loaded TA/PLGA and 8.3 mg of 30 percent loaded TA/PLGA in 4.5 ml of 10 percent fibrinogen solution, respectively, Table 7. A 10 percent Fibrinogen solution without TA was used as the negative control.
Next, the fibrin clots in the ninety-six well plate were prepared as follows: • 1. Two and a half mg of Thrombin (600 units/mg) were dissolved in 1 ml of 375 mM CaCl2 solution in PBS (1500 U/ml). Seven microliters (10.5 U) were added to each well of the labeled 96 well plates. • 3. The fibrinogen solutions (with no TA/PLGA that is 0 percent, 5 percent loaded TA/PLGA and 30 percent loaded TA/PLGA) were mixed well and 100 microliter aliquots of 10 percent fibrinogen with or without TA/PLGA were added to the wells containing thrombin solution. […] The plates were incubated at 37° C. temperature for one hour. Final concentration of CaCl2 was 25 mM. The plate was stored at 4° C. overnight after the clot was formed.
Next, plasmin was added to the fibrin clots to begin the enzymatic degradation of the fibrin clots by plasmin as described herein: • 1. A 300× plasmin solution was prepared by dissolving 500 micrograms in 500 microliter PBS. A 2× stock was prepared by diluting 150 times in PBS and adding 100 microliters to each well of the 96 well plate. The final 1× concentration was 3.3 micrograms/ml in the solution. A no-plasmin PBS only control was used for each condition. • 2. Incubation was at 37° C. At every 24 hours, the 96 well plate was centrifuged at 1,000 rpm for five minutes at room temperature. The supernatant plasmin solutions were aspirated out from each well with micropipette leaving the clots at the bottom of the well. • 3. A set of fibrin clots for each condition each day were taken out for measuring their degradation by plasmin by weighing. Fresh 100 microliter of plasmin solution was added to the rest of the clots. Fibrin clots were removed for measuring their weights each day until the clots were completely degraded in the wells.
Data was collected as follows: • 1. The clots were picked up from the well with a pair of forceps and weighed. The percent degradation was calculated by 100−(Average wt of the plasmin treated clot/actual weight of the clot×100). • 2. The clots were placed on a glass slide and photographed.
The clot or sealant was exchanged with fresh plasmin solution of 3.3 micrograms/ml every 24 hours.
The clots were irrigated and exchanged with fresh plasmin solution of 3.3 micrograms/ml every 24 hours.

[3] = tested on: fibrin clot; test: Fibrin clot weight in a medium containing no plasmin (PBS only); design: species or system Bovine; details: 3 percent Ca-TA but without any plasmin; by Day-3 and Day-4
Experimental: Incubated at 37 C. […] Repeated till the clots completely disappeared.

[4] = TA 0.10 mM, plasmin 6.6 μg/ml, 37° C., 48 hours
[5] = TA 0.25 mM, plasmin 6.6 μg/ml, 37° C., 48 hours
[6] = TA 0.50 mM, plasmin 6.6 μg/ml, 37° C., 48 hours
[7] = TA 1.00 mM, plasmin 6.6 μg/ml, 37° C., 48 hours
[8] = Day 0, Aprotinin 1500 KIU without PLGA-2, plasmin 3.3 micrograms/ml fresh every 24 hours, 37 C
[9] = Day 1, Aprotinin 1500 KIU without PLGA-2, plasmin 3.3 micrograms/ml fresh every 24 hours, 37 C
[10] = Day 2, Aprotinin 1500 KIU without PLGA-2, plasmin 3.3 micrograms/ml fresh every 24 hours, 37 C
[11] = Day 3, Aprotinin 1500 KIU without PLGA-2, plasmin 3.3 micrograms/ml fresh every 24 hours, 37 C
[12] = Day 4, Aprotinin 1500 KIU without PLGA-2, plasmin 3.3 micrograms/ml fresh every 24 hours, 37 C
[13] = Day 0, 3 percent Ca-TA (169.5 mE, 30 mg/ml), no PLGA, plasmin 3.3 μg/ml exchanged every 24 hours, pH 7.4, 37° C.
[14] = Day 1, 3 percent Ca-TA, no PLGA, plasmin 3.3 μg/ml exchanged every 24 hours, pH 7.4, 37° C.
[15] = Day 2, 3 percent Ca-TA, no PLGA, plasmin 3.3 μg/ml exchanged every 24 hours, pH 7.4, 37° C.
[16] = Day 3, 3 percent Ca-TA, no PLGA, plasmin 3.3 μg/ml exchanged every 24 hours, pH 7.4, 37° C.
[17] = Day 4, 3 percent Ca-TA, no PLGA, plasmin 3.3 μg/ml exchanged every 24 hours, pH 7.4, 37° C.

T1 sequence (P00747 97-580 limits assumed): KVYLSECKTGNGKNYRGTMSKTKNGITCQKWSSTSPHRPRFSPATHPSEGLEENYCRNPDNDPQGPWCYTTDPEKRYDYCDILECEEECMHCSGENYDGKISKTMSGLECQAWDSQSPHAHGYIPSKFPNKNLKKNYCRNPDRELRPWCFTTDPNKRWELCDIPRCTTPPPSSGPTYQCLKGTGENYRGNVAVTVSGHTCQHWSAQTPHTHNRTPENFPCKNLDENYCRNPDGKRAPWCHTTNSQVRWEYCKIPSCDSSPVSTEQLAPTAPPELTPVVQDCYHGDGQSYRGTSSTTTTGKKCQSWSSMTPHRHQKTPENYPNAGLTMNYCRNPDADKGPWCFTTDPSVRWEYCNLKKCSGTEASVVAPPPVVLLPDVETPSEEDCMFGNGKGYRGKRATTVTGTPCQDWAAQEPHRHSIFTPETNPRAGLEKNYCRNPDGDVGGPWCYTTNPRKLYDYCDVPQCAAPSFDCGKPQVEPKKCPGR
T1 sequence (P00747 581-810 limits assumed): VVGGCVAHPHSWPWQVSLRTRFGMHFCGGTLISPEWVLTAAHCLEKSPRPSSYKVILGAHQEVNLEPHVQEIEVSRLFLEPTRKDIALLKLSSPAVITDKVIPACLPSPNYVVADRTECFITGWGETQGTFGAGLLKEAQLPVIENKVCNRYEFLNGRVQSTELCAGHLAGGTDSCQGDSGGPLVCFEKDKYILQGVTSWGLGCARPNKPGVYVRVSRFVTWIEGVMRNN

Compound: NC[C@H]1CC[C@H](C(=O)O)CC1 [TA, trans-4-aminomethyl-cyclohexane-1-carboxylic acid]
- Average Weight of fibrin clot [1, 4]: 95.3 mg
- Fibrin clot weight, set A [1, 4]: 96 mg
- Fibrin clot weight, set B [1, 4]: 99 mg
- Fibrin clot weight, set C [1, 4]: 91 mg
- Percentage Degradation [1, 4]: 11.8%
- Average Weight of fibrin clot [1, 5]: 98.0 mg
- Fibrin clot weight, set A [1, 5]: 108 mg
- Fibrin clot weight, set B [1, 5]: 104 mg
- Fibrin clot weight, set C [1, 5]: 82 mg
- Percentage Degradation [1, 5]: 9.3%
- Average Weight of fibrin clot [1, 6]: 105.3 mg
- Fibrin clot weight, set A [1, 6]: 102 mg
- Fibrin clot weight, set B [1, 6]: 106 mg
- Fibrin clot weight, set C [1, 6]: 108 mg
- Percentage Degradation [1, 6]: 2.5%
- Average Weight of fibrin clot [1, 7]: 104.7 mg
- Fibrin clot weight, set A [1, 7]: 100 mg
- Fibrin clot weight, set B [1, 7]: 108 mg
- Fibrin clot weight, set C [1, 7]: 106 mg
- Percentage Degradation [1, 7]: 3.0%
- concentration sufficient for maximum activity (resistance against fibrin clot degradation by plasmin) ([1]; TA concentration, plasmin 6.6 μg/ml, 37° C., 48 hours): 0.1 mM
- concentration sufficient for maximum activity, stated in ppm ([1]; plasmin 6.6 μg/ml, 37° C., 48 hours): 157 ppm

Compound: Aprotinin
- Average Weight of fibrin clot [2, 8]: 109.13 mg
- Fibrin clot weight, set A [2, 8]: 109.30 mg
- Fibrin clot weight, set B [2, 8]: 108.50 mg
- Fibrin clot weight, set C [2, 8]: 109.60 mg
- percent degradation [2, 8]: 0.00%
- Average Weight of fibrin clot [2, 9]: 100.60 mg
- Fibrin clot weight, set A [2, 9]: 100.20 mg
- Fibrin clot weight, set B [2, 9]: 98.10 mg
- Fibrin clot weight, set C [2, 9]: 103.50 mg
- percent degradation [2, 9]: 7.82%
- Average Weight of fibrin clot [2, 10]: 15.03 mg
- Fibrin clot weight, set A [2, 10]: 14.60 mg
- Fibrin clot weight, set B [2, 10]: 13.80 mg
- Fibrin clot weight, set C [2, 10]: 16.70 mg
- percent degradation [2, 10]: 86.22%
- Average Weight of fibrin clot [2, 11]: 0.00 mg
- Fibrin clot weight, set A [2, 11]: 0.00 mg
- Fibrin clot weight, set B [2, 11]: 0.00 mg
- Fibrin clot weight, set C [2, 11]: 0.00 mg
- percent degradation [2, 11]: 100.00%
- Average Weight of fibrin clot [2, 12]: 0.00 mg
- Fibrin clot weight, set A [2, 12]: 0.00 mg
- Fibrin clot weight, set B [2, 12]: 0.00 mg
- Fibrin clot weight, set C [2, 12]: 0.00 mg
- percent degradation [2, 12]: 100.00%

Compound: NCC1CCC(C(=O)[O-])CC1.NCC1CCC(C(=O)[O-])CC1.[Ca+2] (stereo not drawn) [Ca-TA, Calcium Tranexamate]
- increase in volume or weight of clot, of its original weight ([2]; 3 percent Ca-TA, plasmin solution, on Day-1 and Day-2): more than 50%
- Average Weight of fibrin clot [2, 13]: 113.0 mg
- Fibrin clot weight, set A [2, 13]: 113 mg
- Fibrin clot weight, set B [2, 13]: 113 mg
- Fibrin clot weight, set C [2, 13]: 113 mg
- percent degradation [2, 13]: 0%
- Average Weight of fibrin clot [2, 14]: 179.7 mg
- Fibrin clot weight, set A [2, 14]: 175 mg
- Fibrin clot weight, set B [2, 14]: 160 mg
- Fibrin clot weight, set C [2, 14]: 204 mg
- Average Weight of fibrin clot [2, 15]: 185.0 mg
- Fibrin clot weight, set A [2, 15]: 172 mg
- Fibrin clot weight, set B [2, 15]: 174 mg
- Fibrin clot weight, set C [2, 15]: 209 mg
- Average Weight of fibrin clot [2, 16]: 123.3 mg
- Fibrin clot weight, set A [2, 16]: 130 mg
- Fibrin clot weight, set B [2, 16]: 100 mg
- Fibrin clot weight, set C [2, 16]: 140 mg
- Average Weight of fibrin clot [2, 17]: 0.0 mg
- Fibrin clot weight, set A [2, 17]: 0 mg
- Fibrin clot weight, set B [2, 17]: 0 mg
- Fibrin clot weight, set C [2, 17]: 0 mg
- percent degradation [2, 17]: 100%
- increase in volume or weight of clot [3]: more than 50%
- concentration adequate to give a stable clot without any significant degradation ([1]; same manner as FIG. 5 with Ca-TA (FIG. 12)): about 0.1 mE
